Source: PMC10606064, “2-Aminothiazole-Flavonoid Hybrid Derivatives Binding to Tau Protein and Responsible for Antitumor Activity in Glioblastoma” (International Journal of Molecular Sciences, 2023)

How the values were obtained:
[1] = system: U138 glioblastoma cells; assay: MTT cell viability assay, U138; assay type: cell-based; conditions: Homo sapiens, U138, 72 h, mean ± SEM, read-out: IC50 (metabolic activity)
Procedure: Cells harvested from sub-confluent monolayers were seeded at 15,000 cells per mL in a 96-well microtiter plate (Cambridge Technology, Labège, France) and cultured for 24 h under standard conditions. Standard medium was then replaced by fresh medium containing no drugs or compounds at different concentrations. The surviving cells were quantified after 72 h by the MTT assay, according to the manufacturer’s instructions. Briefly, 20 µL of 3-(4,5-diMethylThiazol-2-yl)-2,5diphenyl Tetrazolium bromide (MTT) solution at 5 mg.mL^−1 was added to cells for 3 h at 37 °C. The supernatant was discarded and replaced by 100 µL of dimethyl sulfoxide to dissolve formazan crystals. The absorbance was then read at 600 nm by spectrophotometry. For all concentrations of a given compound, cell viability was expressed as the percentage of the ratio between the mean absorbance of treated cells and the mean absorbance of untreated cells. Three independent experiments were performed, and the data were expressed as percentage of survival (using the untreated cells as 100%) and subjected to statistical analysis (n = 3). The IC50 was calculated using the Chou and Talalay method.

[2] = system: caspase 3 protein (Casp3) in U87 shCTRL and U87 shTau cells; assay: Caspase 3 expression by Western blot (apoptosis); assay type: cell-based, human; conditions: both cell types, 48 h treatment
Procedure: Cells were lysed with freshly made RIPA buffer derivative (4.3 mL of TBS 1×, 50 µL of SDS 10%, 10 µL of EDTA 0.5 M, 500 µL of Triton 10×, and 1% inhibitors of protease and phosphatase). After 30 min of lysis at 4 °C under agitation, lysates were centrifuged at 10,000× g for 10 min at 4 °C. Equivalent amounts of proteins from the supernatant fraction were subjected to Western blot analysis. Protein samples were loaded (40 μg/lane) and separated on 10 or 12% sodium dodecyl sulfate-polyacrylamide gels. The separated proteins were transferred onto nitrocellulose blotting membrane using the Bio-Rad transfer system. Before blocking, the blots were stained with Ponceau red to visualize transfer efficiency. […] The band intensity was quantified using the ImageJ v1.50g software. […] The band intensity was quantified using the NIH ImageJ v1.50g software. […]
death. (A) The apoptotic protein casp ase 3 (Casp 3) was analy zed by western blot of U87 shCTRL and U87 shTau cells: for each s ample t he ratio between the amount of Casp3 and GAPDH was calculated as relative fold of the reference value (with or without the compound); n = 3 lysates, ns: non-si gnificant. […]
blot used for quantification. (B) The activity of necrotic LDH protein was analy zed by fluorescence emission in U87 shCTRL (upper panel) and U87 shTau (lower panel) cells. […]

[3] = system: LC3 proteins in U87 shCTRL and shTau cells; assay: LC3-II/LC3-I ratio by Western blot (autophagosomes); assay type: cell-based, human; conditions: both cell types, 5 µM, 48 h
Procedure: Cells were lysed with freshly made RIPA buffer derivative (4.3 mL of TBS 1×, 50 µL of SDS 10%, 10 µL of EDTA 0.5 M, 500 µL of Triton 10×, and 1% inhibitors of protease and phosphatase). After 30 min of lysis at 4 °C under agitation, lysates were centrifuged at 10,000× g for 10 min at 4 °C. Equivalent amounts of proteins from the supernatant fraction were subjected to Western blot analysis. Protein samples were loaded (40 μg/lane) and separated on 10 or 12% sodium dodecyl sulfate-polyacrylamide gels. The separated proteins were transferred onto nitrocellulose blotting membrane using the Bio-Rad transfer system. […] The band intensity was quantified using the ImageJ v1.50g software. […] The band intensity was quantified using the NIH ImageJ v1.50g software.
Figure 4 Compounds (2) and (9) affect autophagy function machinery and alter mitochondrial morphology. […] (A) Quantities of autophagy LC3 proteins were analyzed by Western blot of U87 shCTRL and U87 shTau cells: for each sample, the ratio of the amount of mature (LC3-II) to immature (LC3-I) isoform was calculated as relative fold of the reference value (with or without the compound); significant statistical differences were calculated using one-way ANOVA with a post hoc Tukey–Kramer HSD test with (*) p < 0.01 from three independent experiments; ns: non-significant. […]

Row | SMILES | IC50 [1] | expression of caspase 3 (Casp3) [2] | ratio of mature LC3-II to immature LC3-I [3]
1 | Nc1nc2ccc3oc(-c4cccc(Oc5ccccc5)c4)cc(=O)c3c2s1 [Compound 2, 2-amino-7-(3-phenoxyphenyl)-9H-chromeno [6,5-d]thiazol-9-one] | 2.3 ± 1 µM | no change in the expression of Casp3 | no statistically significant changes in ratios
2 | Nc1nc2ccc3oc(C(=O)O)cc(=O)c3c2s1 [Compound 5] | > 100 µM | no change in the expression of Casp3 | no statistically significant changes in ratios
